Experiment [1] concerns the target T1, h-GABA-A α5β3γ2 (Homo sapiens (Human), UniProt P18507+P31644). The experiment can be described thus: [3H]flumazenil competition binding assay, membranes of HEK293 cells expressing human GABAA receptors. Conditions: Table 1, displacement of [3H]-Flumazenil 0.5 nM, mean of two determinations. The method, then: The affinity of compounds at GABAA receptor subtypes was measured by competition for [3H]flumazenil (85 Ci/mmol; Roche) binding to HEK293 cells expressing rat (stably transfected) or human (transiently transfected) receptors of composition α1β3γ2, α2β3γ2, α3β3γ2 and α5β3γ2.
Cell pellets were suspended in Krebs-tris buffer (4.8 mM KCl, 1.2 mM CaCl2, 1.2 mM MgCl2, 120 mM NaCl, 15 mM Tris; pH 7.5; binding assay buffer), homogenized by polytron for ca. 20 sec on ice and centrifuged for 60 min at 4° C. (50000 g; Sorvall, rotor: SM24=20000 rpm). The cell pellets were resuspended in Krebs-tris buffer and homogenized by polytron for ca. 15 sec on ice. Protein was measured (Bradford method, Bio-Rad) and aliquots of 1 mL were prepared and stored at 80° C.
Assays were incubated to equilibrium for 1 hour at 4° C. and harvested onto GF/C uni-filters (Packard) by filtration using a Packard harvester and washing with ice-cold wash buffer (50 mM Tris; pH 7.5). After drying, filter-retained radioactivity was detected by liquid scintillation counting. Ki values were calculated using Excel-Fit (Microsoft) and are the means of two determinations.
In general terms: In a radioligand displacement assay an active substance lowers the binding of a labelled ligand.

The target in experiment [2] is T1, h-GABA-A α5β3γ2. The experiment in a line: Two-electrode voltage clamp electrophysiology in Xenopus oocytes expressing GABAA receptors, modulation of GABA EC20 current. The experiment is classed as cell-based. Conditions: for Efficacy (GABA) %: % modulation of GABA EC20. The method, then: Xenopus laevis oocytes at maturation stages V-VI were used for the expression of cloned mRNA encoding GABAA receptor subunits. Oocytes ready for RNA micro-injection were bought from Ecocyte, Castrop-Rauxel, Germany and stored in modified Barth's medium (composition in mM: NaCl 88, KCl 1, NaHCO3 2.4, HEPES 10, MgSO4 0.82, CaNO3 0.33, CaCl2 0.33, pH=7.5) at 20° C. until the experiment.
Oocytes were plated in 96-well plates to be used in an automated instrument (Robo-ocyte, MultiChannelSystems, Reutlingen, Germany) for microinjection and electrophysiological recordings. Approximately 50 nl of an aqueous solution containing the RNA transcripts for the subunits of the desired GABAA receptor was injected into each oocyte.
Electrophysiological experiments were performed on days 3 to 5 after the micro-injection of mRNA. During the experiment the oocytes were constantly superfused by a solution containing (in mM) NaCl 90, KCl 1, HEPES 5, MgCl2 1, CaCl2 1 (pH 7.4). Oocytes were impaled by two glass microelectrodes (resistance: 0.4 MΩ) which were filled with a solution containing KCl 1M+K-acetate 1.5 M and voltage-clamped to −80 mV. The recordings were performed at room temperature using the Roboocyte two-electrode voltage clamp system (Multichannelsystem). After an initial equilibration period of 1.5 min GABA was added for 1.5 min at a concentration evoking approximately 20% of a maximal current response (EC20). After another rest interval of 2.5 min GABA was again added evoking a response of similar amplitude and shape. […] Current traces were recorded at a digitization rate of 10 Hz during and shortly before and after the GABA application.
Each compound and concentration was tested on at least 3 oocytes.
For the analysis, the digitized current traces of the first and second GABA response were superimposed and, if necessary, rescaled to equal maximal amplitudes. The ratio between the two responses during the time interval of test compound application was calculated point by point. The extremum of the resulting “ratio trace” was taken as the efficacy (“Fold increase”) of the compound expressed as “% modulation of GABA EC20” (100*(Fold increase−1)).
(Two-electrode voltage clamp holds a large cell at a set potential and records current.)

Setting [3] is: Table 1, GABA at EC20, test compound at approx. 30 fold its Ki, Xenopus oocytes.
Where [4] appears, read: Table 2, reference compounds, GABAA α5β3γ2 overexpressing oocytes.

What is called Ki is the dissociation constant of the complex between target and ligand, obtained from inhibition or displacement. A lower Ki goes with a stronger hold on the target. Turning to `Cc1ccc(-c2noc(C)c2COc2ccc(C(=O)NC(C)C(F)(F)F)nn2)cn1` (racemic) [Example 34, (RS)-6-((5-methyl-3-(6-methylpyridin-3-yl)isoxazol-4-yl)methoxy)-N-(1,1,1-trifluoropropan-2-yl)pyridazine-3-carboxamide], at h-GABA-A α5β3γ2 [1], the Ki is 0.0132 µM. Consider `Cc1ccc(-c2noc(C)c2COc2ccc(C(=O)NC3CCS(=O)(=O)C3)nn2)cn1` (racemic) [Example 36, (RS)—N-(1,1-dioxothiolan-3-yl)-6-((5-methyl-3-(6-methylpyridin-3-yl)-1,2-oxazol-4-yl)methoxy)pyridazine-3-carboxamide], for which affinity at h-GABA-A α5β3γ2 [1] was put at a Ki of 0.0058 µM. Same read-out and setting: next, `Cc1ccc(-c2noc(C)c2COc2ccc(C(=O)NC3CCOC3)nn2)cn1` (racemic) [Example 45, (RS)-6-((5-methyl-3-(6-methylpyridin-3-yl)isoxazol-4-yl)methoxy)-N-(tetrahydrofuran-3-yl)pyridazine-3-carboxamide]: 0.0066 µM; `Cc1ccc(-c2noc(C)c2COc2ccc(C(=O)NC3CCOC(C)(C)C3)nn2)cn1` (racemic) [Example 58, (RS)—N-(2,2-dimethyltetrahydropyran-4-yl)-6-((5-methyl-3-(6-methylpyridin-3-yl)isoxazol-4-yl)methoxy)pyridazine-3-carboxamide]: 0.0161 µM. Still for that read-out and setting: the figure for `Cc1ccc(-c2noc(C)c2COc2ccc(C(=O)NC3(C)CCOC3)nn2)cn1` (racemic) [Example 75, (RS)-6-((5-methyl-3-(6-methylpyridin-3-yl)isoxazol-4-yl)methoxy)-N-(3-methyltetrahydrofuran-3-yl)pyridazine-3-carboxamide] is 0.0174 µM; for `Cc1ccc(-c2noc(C)c2COc2ccc(C(=O)N[C@@H]3CC[C@@H](O)C3)nn2)cn1` (racemic) [Example 152, N-((1RS,3RS)-3-hydroxycyclopentyl)-6-((5-methyl-3-(6-methylpyridin-3-yl)isoxazol-4-yl)methoxy)pyridazine-3-carboxamide] it is 0.0053 µM.

Turning to `CO[C@@H]1CC[C@@H](NC(=O)c2ccc(OCc3c(-c4ccc(C)nc4)noc3C)nn2)C1` (racemic) [Example 166, trans-N-((1RS,3RS)-3-methoxycyclopentyl)-6-((5-methyl-3-(6-methylpyridin-3-yl)isoxazol-4-yl)methoxy)pyridazine-3-carboxamide], the “Fold increase h-GABA-A α5β3γ2 oocyte” value at h-GABA-A α5β3γ2 [2] (setting [3]) worked out at 1.7. This compound also showed a Ki at h-GABA-A α5β3γ2 [1] of 0.0076 µM. On to `Cc1ccc(-c2noc(C)c2COc2ccc(C(=O)NC3CCCOCC3)nn2)cn1` (racemic) [Example 187, (RS)-6-((5-methyl-3-(6-methylpyridin-3-yl)isoxazol-4-yl)methoxy)-N-(oxepan-4-yl)pyridazine-3-carboxamide], for which, on h-GABA-A α5β3γ2 [1], the Ki turned out to be 0.0148 µM.

In the case of `Cc1ccc(-c2noc(C)c2COc2ccc(C(=O)N[C@H]3CCCC[C@H]3O)nn2)cn1` [Example 23, N-((1S,2R)-2-hydroxycyclohexyl)-6-((5-methyl-3-(6-methylpyridin-3-yl)isoxazol-4-yl)methoxy)pyridazine-3-carboxamide], on h-GABA-A α5β3γ2 [2] (setting [3]), the “Fold increase h-GABA-A α5β3γ2 oocyte” value was found to be 1.89. On h-GABA-A α5β3γ2 [1], this compound returned a Ki of 0.0204 µM. The matching figures for `Cc1ccc(-c2nocc2COc2ccc(C(=O)NC3CCOCC3)cn2)cn1` [Example 44, 6-((3-(6-methyl-3-pyridyl)isoxazol-4-yl)methoxy)-N-tetrahydropyran-4-yl-pyridine-3-carboxamide]: 1.54 and 0.0761 µM. For `Cc1ccc(-c2noc(C)c2COc2ccc(C(=O)NC(C)(C)CCS(C)(=O)=O)nn2)cn1` [Example 80, 6-((5-methyl-3-(6-methylpyridin-3-yl)isoxazol-4-yl)methoxy)-N-(2-methyl-4-(methylsulfonyl)butan-2-yl)pyridazine-3-carboxamide], the Ki at h-GABA-A α5β3γ2 [1] stood at 0.0132 µM. For `Cc1ccc(-c2noc(C)c2COc2ccc(C(=O)N3C[C@@H]4C[C@H]3CO4)nn2)cn1` [Example 151, (1S,4S)-2-oxa-5-azabicyclo[2.2.1]heptan-5-yl(6-((5-methyl-3-(6-methylpyridin-3-yl)isoxazol-4-yl)methoxy)pyridazin-3-yl)methanone], the “Fold increase h-GABA-A α5β3γ2 oocyte” value on h-GABA-A α5β3γ2 [2] (setting [3]) is given as 1.68. This compound had a Ki on h-GABA-A α5β3γ2 [1] of 0.0458 µM.

For the compound `O=C(N[C@H]1CCOC1)c1ccc(OCc2c(-c3ccc(Cl)nc3)noc2C2CC2)nn1` [Example 179, (S)-6-((3-(6-chloropyridin-3-yl)-5-cyclopropylisoxazol-4-yl)methoxy)-N-(tetrahydrofuran-3-yl)pyridazine-3-carboxamide], at h-GABA-A α5β3γ2 [2] (setting [3]), the “Fold increase h-GABA-A α5β3γ2 oocyte” value is on record as 1.82. On h-GABA-A α5β3γ2 [1], this compound came in with a Ki of 0.043 µM. Regarding `Cc1onc(-c2cccnc2)c1COc1ccc(C(=O)NC2CCOCC2)cn1` [RO-159, reference compound], the “Efficacy (GABA) %” value on h-GABA-A α5β3γ2 [2] (Table 2, reference compounds) is listed as −12%. The “Fold increase h-GABA-A α5β3γ2 oocyte” value on h-GABA-A α5β3γ2 [2] (setting [4]) came to 0.88.

For the compound `Cc1ccc(-c2noc(C)c2COc2ccc(C(=O)NC3CCOCC3)cn2)cc1` [RO-251, reference compound], the “Efficacy (GABA) %” value on h-GABA-A α5β3γ2 [2] (Table 2, reference compounds) was −18%. Moreover, the “Fold increase h-GABA-A α5β3γ2 oocyte” value at h-GABA-A α5β3γ2 [2] (setting [4]) turned out to be 0.82. As to `Cc1onc(-c2ccccn2)c1COc1ccc(C(=O)NC2CCOCC2)cn1` [RO-272, reference compound], the “Efficacy (GABA) %” value on h-GABA-A α5β3γ2 [2] (Table 2, reference compounds) is recorded as −32%. The “Fold increase h-GABA-A α5β3γ2 oocyte” value on h-GABA-A α5β3γ2 [2] (setting [4]) was 0.68.

On to `Cc1onc(-c2ccc(Cl)cn2)c1COc1ccc(C(=O)NC2CCOCC2)cn1` [RO-301, reference compound], for which, on h-GABA-A α5β3γ2 [2] (Table 2, reference compounds), the “Efficacy (GABA) %” value is −18%. Further, the “Fold increase h-GABA-A α5β3γ2 oocyte” value on h-GABA-A α5β3γ2 [2] (setting [4]) amounted to 0.82. Take `COC(=O)c1cc2c(cn1)[nH]c1ccccc12` [β-CCM, reference compound]: the “inhibition of the GABA-evoked current” value on h-GABA-A α5β3γ2 [2] (positive control (NAM) at a maximally effective concentration) is reported as around 50%. This compound yielded a Fold increase at h-GABA-A α5β3γ2 [2] (positive control at a maximally effective concentration, 3-6 oocytes per 96-well plate) of around 0.5.

Values taken from patent publication US11091471B2, “Isoxazolyl ether derivatives as GABAA α5 PAM” (Hoffmann-La Roche Inc., priority 2016, dated 2021).
